From ChEMBL document CHEMBL1201862, “PubChem BioAssay data set” (2004)
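Dose response: 5 concentrations. Exposure: 48 h. Format: 96-well plates. Endpoint: linear interpolation; highest concentration if not reached. GI50 marks 50% less growth.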 The source made the active and inactive calls. Cut-off read from the data, not from the text of the source: active = GI50 up to about 1.1 µM and inactive = higher.

Tests used:
Test in all cases: DTP human tumour cell line panel, 48 h
[1] = test system: OVCAR-8
[2] = test system: IGROV-1
[3] = test system: SR
[4] = test system: EKVX
[5] = test system: COLO 205
[6] = test system: HOP-62
[7] = test system: A498
[8] = test system: HCT-15
[9] = test system: CAKI-1
[10] = test system: BT-549
[11] = test system: HCT-116
[12] = test system: LOX IMVI
[13] = test system: SN12C
[14] = test system: NCI-H23
[15] = test system: SNB-19
[16] = test system: SW-620
[17] = test system: NCI-H522
[18] = test system: A549
[19] = test system: T47D

Structure (SMILES)	GI50 [1]	GI50 [2]	GI50 [3]	GI50 [4]	GI50 [5]	GI50 [6]	GI50 [7]	GI50 [8]	GI50 [9]	GI50 [10]	GI50 [11]	GI50 [12]	GI50 [13]	GI50 [14]	GI50 [15]	GI50 [16]	GI50 [17]	GI50 [18]	GI50 [19]
C[C@H]1COC2=C1C(=O)C(=O)c1c2ccc2c1CCCC2(C)C [CRYPTOTANSHINONE]	2.58 µM (inactive)	2.71 µM (inactive)	3.42 µM (inactive)	4.62 µM (inactive)	1.15 µM (inactive)	3.68 µM (inactive)	18.3 µM (inactive)	1.94 µM	8.22 µM (inactive)	2.11 µM (inactive)	2.96 µM (inactive)	2.52 µM (inactive)	4.37 µM (inactive)	1.55 µM (inactive)	2.52 µM (inactive)	1.73 µM (inactive)	2.01 µM (inactive)	1.05 µM (active)	9.46 µM (inactive)
Cc1ccc2c(ccc3c[n+]4ccccc4c(C)c32)c1.[O-][Cl+3]([O-])([O-])[O-]	2.29 µM (inactive)	8.04 µM (inactive)	1.21 µM (inactive)	62.4 µM (inactive)	1.32 µM (inactive)	2.44 µM (inactive)	13.4 µM (inactive)	> 100 µM	0.297 µM (active)	1.15 µM (inactive)	4.59 µM (inactive)	11.7 µM (inactive)	0.402 µM (active)	1.32 µM (inactive)	0.451 µM (active)	0.962 µM (active)	1.59 µM (inactive)	0.373 µM (active)	2.47 µM (inactive)
O=C1OC(c2ccc([N+](=O)[O-])cc2)=N/C1=C\c1ccc(Cl)cc1	> 100 µM (inactive)	> 100 µM (inactive)	> 100 µM (inactive)	> 100 µM (inactive)	> 100 µM (inactive)	> 100 µM (inactive)	> 100 µM (inactive)	> 100 µM	> 100 µM (inactive)	> 100 µM (inactive)	> 100 µM (inactive)	> 100 µM (inactive)	> 100 µM (inactive)	> 100 µM (inactive)	> 100 µM (inactive)	> 100 µM (inactive)	> 100 µM (inactive)	> 100 µM (inactive)	> 100 µM (inactive)
CCOC(=O)C(C(=O)OCC)C(=S)NC1OC(COC(C)=O)C(OC(C)=O)C(OC(C)=O)C1OC(C)=O (configuration not stated)	> 100 µM (inactive)	> 100 µM (inactive)	> 100 µM (inactive)	> 100 µM (inactive)	> 100 µM (inactive)	> 100 µM (inactive)	> 100 µM (inactive)	> 100 µM	> 100 µM (inactive)	> 100 µM (inactive)	> 100 µM (inactive)	> 100 µM (inactive)	> 100 µM (inactive)	> 100 µM (inactive)	> 100 µM (inactive)	> 100 µM (inactive)	> 100 µM (inactive)	> 100 µM (inactive)	> 100 µM (inactive)
C[n+]1ccccc1/C1=c2\cc/c([nH]2)=C(\c2cccc[n+]2C)C2=N/C(=C(/c3cccc[n+]3C)C3C=CC(N3)/C(c3cccc[n+]3C)=C3/C=CC1=N3)C=C2	> 100 µM (inactive)	92.9 µM (inactive)	15.6 µM (inactive)	> 100 µM (inactive)	75.2 µM (inactive)	> 100 µM (inactive)	> 100 µM (inactive)	> 100 µM	> 100 µM (inactive)	> 100 µM (inactive)	46.3 µM (inactive)	> 100 µM (inactive)	> 100 µM (inactive)	> 100 µM (inactive)	> 100 µM (inactive)	73.3 µM (inactive)	> 100 µM (inactive)	> 100 µM (inactive)	> 100 µM (inactive)
CC(C)(C)CC(N)=O	> 100 µM (inactive)	> 100 µM (inactive)	> 100 µM (inactive)	> 100 µM (inactive)	> 100 µM (inactive)	> 100 µM (inactive)	> 100 µM (inactive)	> 100 µM	> 100 µM (inactive)	> 100 µM (inactive)	> 100 µM (inactive)	> 100 µM (inactive)	> 100 µM (inactive)	> 100 µM (inactive)	> 100 µM (inactive)	> 100 µM (inactive)	> 100 µM (inactive)	> 100 µM (inactive)	> 100 µM (inactive)
COc1cc2c(cc1O)CCN(C)[C@H]2Cc1ccc(Oc2c(O)c(OC)cc3c2C[C@H]2c4c(c(OC)c(OC)c(OC)c4-3)CCN2C)cc1 [THALIFABERIDINE]	4.16 µM (inactive)	5.43 µM (inactive)	1.61 µM (inactive)	5.92 µM (inactive)	7.08 µM (inactive)	6.01 µM (inactive)	7.41 µM (inactive)	4.43 µM	5.06 µM (inactive)	5.75 µM (inactive)	2.99 µM (inactive)	1.72 µM (inactive)	5.35 µM (inactive)	6.41 µM (inactive)	6.34 µM (inactive)	4.71 µM (inactive)	5.55 µM (inactive)	4.94 µM (inactive)	6.05 µM (inactive)
Cc1ccc2c(O)cc(-c3ccc(F)cc3)nc2n1	51.1 µM (inactive)	25.7 µM (inactive)	7.4 µM (inactive)	28.7 µM (inactive)	17.2 µM (inactive)	48.8 µM (inactive)	25.1 µM (inactive)	18.5 µM	42 µM (inactive)	86.3 µM (inactive)	–	30.1 µM (inactive)	52 µM (inactive)	41.3 µM (inactive)	65.9 µM (inactive)	28.6 µM (inactive)	24.9 µM (inactive)	61.7 µM (inactive)	41.9 µM (inactive)
O=C(NNC(=S)NC1CCCCC1)C12CC3CC(CC(C3)C1)C2	> 100 µM (inactive)	> 100 µM (inactive)	0.637 µM (active)	–	> 100 µM (inactive)	> 100 µM (inactive)	> 100 µM (inactive)	> 100 µM	> 100 µM (inactive)	> 100 µM (inactive)	> 100 µM (inactive)	> 100 µM (inactive)	> 100 µM (inactive)	> 100 µM (inactive)	> 100 µM (inactive)	> 100 µM (inactive)	> 100 µM (inactive)	> 100 µM (inactive)	> 100 µM (inactive)
CN(CCCn1ccnc1[N+](=O)[O-])CCCn1ccnc1[N+](=O)[O-]	> 100 µM (inactive)	> 100 µM (inactive)	> 100 µM (inactive)	> 100 µM (inactive)	> 100 µM (inactive)	> 100 µM (inactive)	> 100 µM (inactive)	> 100 µM	> 100 µM (inactive)	> 100 µM (inactive)	> 100 µM (inactive)	> 100 µM (inactive)	> 100 µM (inactive)	> 100 µM (inactive)	–	> 100 µM (inactive)	> 100 µM (inactive)	> 100 µM (inactive)	> 100 µM (inactive)
S=C(NN=C1NCCCCN1)Nc1ccccc1	36 µM (inactive)	43.4 µM (inactive)	13.1 µM (inactive)	66.4 µM (inactive)	6.68 µM (inactive)	68.9 µM (inactive)	> 100 µM (inactive)	37.4 µM	> 100 µM (inactive)	64.9 µM (inactive)	24.5 µM (inactive)	26.6 µM (inactive)	> 100 µM (inactive)	> 100 µM (inactive)	> 100 µM (inactive)	–	21.2 µM (inactive)	34.8 µM (inactive)	> 100 µM (inactive)
Nc1cccc(S(=O)(=O)Nc2nnc(S(N)(=O)=O)s2)c1	> 100 µM (inactive)	> 100 µM (inactive)	> 100 µM (inactive)	> 100 µM (inactive)	> 100 µM (inactive)	> 100 µM (inactive)	> 100 µM (inactive)	> 100 µM	> 100 µM (inactive)	> 100 µM (inactive)	> 100 µM (inactive)	> 100 µM (inactive)	–	> 100 µM (inactive)	> 100 µM (inactive)	> 100 µM (inactive)	> 100 µM (inactive)	> 100 µM (inactive)	> 100 µM (inactive)
CCC(C)C(NC(=O)C(CCCC[N+](=N)N)NC(=O)C(CCCC[N+](=N)N)NC(=O)c1ccc(OC)cc1)C(=O)NC(CCCC[N+](=N)N)C(=O)N1CCCC1C(=O)NC(CCCCN)C(=O)NC(CC(C)C)C(N)=O (configuration not stated)	> 100 µM (inactive)	–	> 100 µM (inactive)	> 100 µM (inactive)	> 100 µM (inactive)	> 100 µM (inactive)	> 100 µM (inactive)	> 100 µM	> 100 µM (inactive)	> 100 µM (inactive)	> 100 µM (inactive)	> 100 µM (inactive)	> 100 µM (inactive)	> 100 µM (inactive)	> 100 µM (inactive)	> 100 µM (inactive)	> 100 µM (inactive)	> 100 µM (inactive)	> 100 µM (inactive)
COc1ccc(N2C(=O)/C(=C\c3cc(OC)c(OC)c(OC)c3)SC2c2ccccc2)cc1 (configuration not stated)	95.9 µM (inactive)	–	28.4 µM (inactive)	83.9 µM (inactive)	62.5 µM (inactive)	> 100 µM (inactive)	> 100 µM (inactive)	58.2 µM	> 100 µM (inactive)	26.1 µM (inactive)	71.9 µM (inactive)	29.6 µM (inactive)	> 100 µM (inactive)	33.1 µM (inactive)	> 100 µM (inactive)	> 100 µM (inactive)	16.6 µM (inactive)	> 100 µM (inactive)	42.6 µM (inactive)
COc1ccc(-n2c(C)nc3ccc(/N=C/c4ccccc4)cc3c2=O)cc1	> 100 µM (inactive)	> 100 µM (inactive)	> 100 µM (inactive)	> 100 µM (inactive)	> 100 µM (inactive)	> 100 µM (inactive)	> 100 µM (inactive)	> 100 µM	> 100 µM (inactive)	> 100 µM (inactive)	> 100 µM (inactive)	> 100 µM (inactive)	> 100 µM (inactive)	> 100 µM (inactive)	> 100 µM (inactive)	> 100 µM (inactive)	> 100 µM (inactive)	–	> 100 µM (inactive)
